According to patent US20180296523A1, “USE OF POLYMETHOXYLATED FLAVONES TO AMELIORATE CIRCADIAN RHYTHM DISORDERS” (THE BOARD OF REGENTS OF THE UNIVERSITY OF TEXAS SY, priority 2017, published 2018):
“Also recorded” adds a separate entry of the source. Each block holds one molecule with its values, some of them ahead of it.

How the values were obtained:
RORα-LBD = target: T1, RORα-LBD (Homo sapiens, UniProt P35398); assay: Radioligand receptor binding assay with 25-[3H]-OHC, RORα-LBD; conditions: in the presence of 4.5 nM 25-[3H]-OHC
T1 sequence (P35398 272-510 limits assumed): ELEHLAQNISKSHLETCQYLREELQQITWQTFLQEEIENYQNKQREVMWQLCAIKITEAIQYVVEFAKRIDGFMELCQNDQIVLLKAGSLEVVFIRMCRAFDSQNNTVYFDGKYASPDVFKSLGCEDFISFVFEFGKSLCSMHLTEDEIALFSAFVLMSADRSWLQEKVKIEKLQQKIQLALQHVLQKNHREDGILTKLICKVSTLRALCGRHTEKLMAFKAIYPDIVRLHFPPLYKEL
Experimental: Ligand binding was determined by filter binding assays to calculate the Kd value. […] Ki was determined using the Cheng-Prusoff equation.

[1] = tested on: HFD-fed WT and Clock^Δ19/Δ19 C57BL/6J mice; assay: Diet-induced obese (DIO) mouse model, HFD-fed WT and Clock^Δ19/Δ19 mice; format: in vivo; conditions: for body weight gain: 10-week treatment
Experimental: For diet-induced obesity, male mice at 6 weeks of age were fed with HFD (D12492, Research Diets) until the end of the experimental protocol. The mice were treated with either vehicle (DMSO) or NOB (200 mg/kg body weight) via oral gavage every other day, in the time window of ZT8-10, throughout the experimental period. An every-other-day dosing regimen was chosen at the indicated level based on several reasons. First, previous in vivo studies have used similar overall amounts for mouse treatment (100-125 mg/kg/day) (Lee et al., 2013; Li et al., 2006). The oral gavage procedure was done in late afternoon (ZT8-10) prior to the start of their active phase, reasoning that this may coincide with the time-window adopted by previous studies. Second, daily dosing was not chosen to avoid entraining the experimental mice with the procedure per se as an artificial zeitgeber. Furthermore, pilot pharmacokinetic (PK) assays were done under a single-dose condition (Fig. S7). […] Therefore, it was reasoned that every-other day dosing helps avoid any incomplete daily clearance over the chronic experimental period (10 weeks). Weekly body weight was monitored in different treatment mice for 10 weeks. Body mass composition was measured at the end of experiments using a […] spectrometer (Bruker Optics, Texas) (Garcia et al., 2013). A control group of mice were fed with regular chow diet (Purina 5001) in parallel with the two treatment groups in HFD. For db/db and db/db Clock^[…]/[…] mice, male mice at 6-8 weeks of age were group-housed (2-3/cage) and maintained on regular chow diets. Mice were subjected to oral gavage with either DMSO or NOB as described above. Energy expenditure was examined by measuring oxygen consumption with indirect calorimetry as described (Chutkow et al., 2010; Daniels et al., 2010). After 8 weeks of treatments described above, mice from each group were placed at room temperature (22° C.-24° C.) in the chambers of a Comprehensive Lab Animal Monitoring System (CLAMS, Columbus Instruments, Columbus, Ohio). After mice adapted to the metabolic chamber, volume of O2 consumption and CO2 production was continuously recorded over a 24-hr period. Average O2 consumption was calculated and compared between different treatments. Food and water were provided ad libitum. To measure food intake, food pellets were weighted every three hours over a 24-hr period in mice treated as above. The daily food intake was calculated from averaged food intake of 3 independent experiments. Serum samples were obtained at ZT2 from treated mice as previously described (Jeong et al., 2015). Hepatic triglyceride and cholesterol were extracted as previously described (Liu et al., 2012). The triglyceride and cholesterol levels in liver and serum were assessed by Serum Triglyceride Determination Kit (Sigma) and Cholesterol Assay Kit (Cayman), respectively. The assay plates were read by a TECAN M200 instrument (Tecan) following the manufacturer's instructions. Glucose tolerance test (GTT) and insulin tolerance test (ITT) were performed largely as described (He et al., 2015; Jeong et al., 2015). Briefly, after overnight and 5-hr fasting, GTT and ITT were conducted at ZT2 and ZT8 respectively. Glucose levels were measured from tail blood before and 15, 30, 60, or 120 min after injection of either 1 g/kg glucose or 0.75 U/kg insulin (Sigma) at ZT2 and ZT8 respectively by using the ONETOUCH UltraMini blood glucose monitoring system (LifeScan). Serum insulin levels were measured with the Rat/Mouse Insulin Elisa kit (Millipore) according to the manufacturer's instructions. The plasma samples were collected at ZT2 as described above for lipid assays. For microscopic analysis of lipid accumulation in liver, tissue samples were collected and immediately embedded in Tissue-Tek OCT cryostat molds (Leica) and then frozen at -80° C. Tissue sections were stained in 0.5% Oil Red O and counterstained with Mayer's hematoxylin for 1 min. […]

[2] = tested on: Clock^Δ19/+ PER2::Luc reporter cells; assay: High-throughput chemical screen, PER2::Luc reporter rhythm; format: cell-based, mouse; conditions: for PER2::Luc reporter rhythm / circadian amplitude: Clock^Δ19/+ cells, forskolin pre-stimulated
Experimental: Specifically, the chemical screen for circadian clock modulators was conducted at the Chemical Genomics Core facility at the University of Texas Health Science Center at Houston (UTHSC-H). The in-house chemical library screened consisted of compounds from the National Institutes of Health (NIH) Clinical Collection, National Cancer Institute collection, and Microsource Spectrum Collection. Screening was conducted largely on the basis of the protocol previously described (Chen et al., 2012). […] Upon confluency, cells were incubated with 5 μM forskolin for 1-2 hr, followed by the addition of chemical compounds to the plates with robotic arms (Beckman), and then subjected to continuous monitoring over several days in a temperature-controlled EnVision microplate reader (Perkin Elmer). Data analysis was carried out by using the MultiCycle software (Actimetrics) for measurement of period, phase, and amplitude. The chemical screen for circadian clock modulators was conducted at the Chemical Genomics Core facility at the UTHSC-H. The in-house chemical library screened consists of compounds from NIH Clinical Collection, NCI collection and Microsource Spectrum Collection. The screening was conducted largely based on the protocol previously described (Chen et al., 2012). […] Cells were then incubated with 5 μM forskolin for 1-2 h followed by the addition of chemical compounds to the plates with robotic arms (Beckman), and then subjected to continuous monitoring over several days in a temperature-controlled EnVision microplate reader (Perkin Elmer). Data analysis was carried out by using the MultiCycle software (Actimetrics) for measurement of period, phase, and amplitude. […] Tissue explant experiments were conducted as described previously (Chen et al., 2012).

[3] = HFD-fed WT mice, serum and liver

- competitive binding to RORα-LBD (RORα-LBD): markedly diminished binding
Structure (SMILES): C[C@@H]1O[C@@H](O[C@H]2[C@H](Oc3cc(O)c4c(c3)O[C@H](c3ccc(O)cc3)CC4=O)O[C@H](CO)[C@@H](O)[C@@H]2O)[C@H](O)[C@H](O)[C@H]1O [naringin, reference compound]
- difference of treatment effects between WT and Clock^Δ19/Δ19 mice ([1]; HFD-fed C57BL/6J mice): largely indistinguishable
- blood insulin levels ([1]; HFD-fed Clock^Δ19/Δ19 mice): decreased to similar extents
- glucose tolerance (GTT) ([1]; HFD-fed Clock^Δ19/Δ19 mice): modest effects on glucose tolerance
- insulin sensitivity (ITT) ([1]; HFD-fed Clock^Δ19/Δ19 mice): modest effects on insulin sensitivity
- fasting blood glucose levels ([1]; HFD-fed Clock^Δ19/Δ19 mice, daytime and nighttime): failed to reduce fasting blood glucose levels
- fasting glucose levels ([1]; HFD-fed WT mice): reduced fasting blood glucose levels
- glucose tolerance (GTT) ([1]; HFD-fed WT mice): modest effects on glucose tolerance
- insulin sensitivity (ITT) ([1]; HFD-fed WT mice): modest effects on insulin sensitivity
- blood insulin levels ([1]; HFD-fed WT mice, vs vehicle): decreased to similar extents
- effects on body weight gain and lipid and glucose homeostasis ([1]; HFD-fed mice, compared with nobiletin): significantly attenuated effects
- PER2::Luc reporter rhythm / circadian amplitude [2]: failed to enhance cellular circadian rhythms
- reporter luminescence ([2]; PER2::LUC Clock^Δ19/+ reporter cells): did not enhance the reporter luminescence

Structure (SMILES): COc1ccc(-c2cc(=O)c3c(OC)c(OC)c(OC)c(OC)c3o2)cc1OC [nobiletin]
- competitive binding to RORα-LBD (RORα-LBD): direct binding; also recorded: robust competitive binding
- lipid droplet formation in liver ([1]; DIO WT liver): essentially abolished lipid droplet formation
- liver steatosis (H&E and Oil Red O staining) ([1]; DIO WT liver): strongly improved liver steatosis
- adipocyte cell size ([1]; HFD-fed Clock^Δ19/Δ19 mice): essentially unchanged
- energy expenditure ([1]; HFD-fed Clock^Δ19/Δ19 mice): no increase
- fat mass ([1]; HFD-fed Clock^Δ19/Δ19 mice): essentially unchanged
- food intake ([1]; HFD-fed Clock^Δ19/Δ19 mice): did not change food intake
- glucose and lipid homeostasis ([1]; HFD-fed Clock^Δ19/Δ19 mice): did not significantly improve
- respiratory quotient ([1]; HFD-fed Clock^Δ19/Δ19 mice): no increase
- body weight gain ([1]; HFD-fed Clock^Δ19/Δ19 mice): very modest reduction in body weight gain
- beneficial effect on liver steatosis ([1]; HFD-fed Clock^Δ19/Δ19 mice, compared with WT mice): markedly attenuated
- fasting glucose levels ([1]; HFD-fed WT mice): lowered fasting glucose levels
- fat mass (body mass composition) ([1]; HFD-fed WT mice): reduction in fat mass
- glucose tolerance (GTT) ([1]; HFD-fed WT mice): significantly improved
- insulin sensitivity (ITT) ([1]; HFD-fed WT mice): significantly improved
- respiratory quotient ([1]; HFD-fed WT mice): increased
- white adipose cell size ([1]; HFD-fed WT mice): reduction
- body weight gain ([1]; HFD-fed WT mice, 200 mg/kg oral every other day, vs vehicle): significantly attenuated body weight gain
- total cholesterol (TC) levels [1, 3]: significantly diminished
- total triglyceride (TG) levels [1, 3]: significantly diminished
- oxygen consumption (energy expenditure) ([1]; HFD-fed WT mice, throughout the circadian cycle): greatly elevated oxygen consumption
- blood insulin levels ([1]; HFD-fed WT mice, vs vehicle): strongly reduced
- food intake ([1]; HFD-fed WT mice, vs vehicle): not significantly altered
- white adipose cell size ([1]; HFD-fed WT mice, listed as NOB): reduced visceral WAT cell size
- PER2::Luc reporter rhythm / circadian amplitude [2]: enhance the reporter rhythm
- PER2::Luc reporter rhythm / circadian amplitude ([2]; listed as Nobiletin): significantly enhance circadian amplitude
